From patent US4803167A, “Monoclonal antidigoxtin antibodies” (The General Hospital Corporation, priority 1982, dated 1989)
Values joined by “and” are separate entries in the source; they are usually repeats but may differ in a detail not shown here. Identical values can stand only once. Like-named read-outs stand apart in the source and are kept apart here.

What was measured:
[1] = target: monoclonal anti-digoxin antibody Dig 26-10; experiment: Affinity constant by equilibrium dialysis; assay type: binding, mouse (A/J); conditions: confirmed by equilibrium dialysis
Text: The affinity constant determined for Dig 26-10 (approximately 10^9 M^-1) was confirmed by equilibrium dialysis. […] The Ko determined for Dig 35-20 was also high, 1.3-3.4×10^9 M^-1.

[2] = test system: heterogeneous anti-digoxin antibody, Sheep Antisera; experiment: Affinity determination, [3H]digoxin dextran-coated charcoal RIA; assay type: binding; conditions: antibody source: serum; 60 min; read-out: Affinity Constant K0 for digoxin (converted)
Experimental: (§1) Antisera specific for digoxin was prepared in sheep as previously described by Curd et al, Proc. Nat. Acad. Sci. 65: 2401 (1971). High affinity antidigoxin sheep antisera was used in the clinical RIA for digoxin (described below).

[3] = test system: monoclonal anti-digoxin antibody Dig 26-10; experiment: Specificity determination, inhibition of [3H]digoxin binding in dextran charcoal RIA; set-up: species or system mouse (A/J); conditions: inhibition of antibody binding to [3H]digoxin
Experimental: (§2) The specificity of each antidigoxin antibody for related cardiac glycosides was assessed by the inhibition of binding of antibody in the dextran charcoal radioimmunoassay Smith (1972), supra. To a constant amount of H^3 -digoxin (1.5 ng) in 1 ml of buffer is added different amounts ([…]) of various cardiac glycosides: digoxin, digitoxin, digitoxigenin, digoxigenin, acetyl-strophanthidin, ouabain, deslanoside, and endogenous steroids such as chloresterol, cortisol, androsterone, 17-[beta]-estradiol, progesterone, and testosterone. After 5 minutes, a constant amount of anti-digoxin antibody was added and the assay was continued as described above. Comparison among different antidigoxin antibodies with respect to their fine specificity was made by determining the amount of cardiac glycoside required to achieve 50% inhibition relative to that required for cold digoxin.
(§3) Specificity of monoclonal antibody binding site for related cardiac glycosides was examined by means of hapten inhibition experiments in which the binding of monoclonal antibody to H^3 -digoxin was inhibited by cold digoxin and related cardiac glycosides.

[4] = test system: monoclonal anti-digoxin antibody Dig 35-20; experiment: as above; set-up: species or system mouse (A/J); conditions: inhibition of antibody binding to [3H]digoxin
Experimental: as §2, §3

[5] = test system: monoclonal anti-digoxin antibody Dig 26-30; experiment: as above; set-up: species or system mouse (A/J); conditions: inhibition of antibody binding to [3H]digoxin
Experimental: as §2, §3

[6] = test system: monoclonal anti-digoxin antibody Dig 25-54; experiment: as above; set-up: species or system mouse (A/J); conditions: inhibition of antibody binding to [3H]digoxin
Experimental: as §2, §3

[7] = test system: monoclonal anti-digoxin antibody Dig 26-20; experiment: as above; set-up: species or system mouse (A/J); conditions: inhibition of antibody binding to [3H]digoxin
Experimental: as §2, §3

[8] = test system: monoclonal anti-digoxin antibody Dig 26-40; experiment: as above; set-up: species or system mouse (A/J); conditions: inhibition of antibody binding to [3H]digoxin
Experimental: as §2, §3

[9] = test system: monoclonal anti-digoxin antibody Dig 25-54 (IgG1); experiment: Affinity determination, [3H]digoxin dextran-coated charcoal RIA; assay type: binding, mouse (A/J); conditions: for Kd: 60 min, read-out: Affinity Constant K0 for digoxin (converted)
Experimental: (§4) Using the dextran coated charcoal binding method for separation of bound antibody from free H^3 -digoxin (Smith, J. Clin. Invest. 51:1583 (1972)), affinities (Ko) for monoclonal anti-digoxin antibodies were determined for antibody present in culture media and in preparations purified from ascites. Data were plotted according to a modified Sips equation (Nisonoff et al, J. Immunol. 80:417 (1958)), as described earlier herein. Typical of single component systems, a linear plot was obtained for all hybridomas analyzed. Correlation coefficients (r) varied from 0.989 to 0.999 for the monoclonal antibodies analyzed by this method. As anticipated, no significant difference was found for affinity constants determined for antibody present in culture media and in preparations following purification from ascites fluid (Table III).

[10] = target: monoclonal anti-digoxin antibody Dig 26-30 (IgG2a); experiment: as above; assay type: binding, mouse (A/J); conditions: 60 min, read-out: Affinity Constant K0 for digoxin (converted)
Experimental: as §4

[11] = test system: monoclonal anti-digoxin antibody Dig 35-20 (IgG1); experiment: as above; assay type: binding, mouse (A/J); conditions: for Kd: 60 min, read-out: Affinity Constant K0 for digoxin (converted)
Experimental: as §4

[12] = target: monoclonal anti-digoxin antibody Dig 26-10 (IgG2a); experiment: as above; assay type: binding, mouse (A/J); conditions: for Kd: 60 min, read-out: Affinity Constant K0 for digoxin (converted)
Experimental: as §4

[13] = target: monoclonal anti-digoxin antibody Dig 26-20 (IgG2a); experiment: as above; assay type: binding, mouse (A/J); conditions: 60 min, read-out: Affinity Constant K0 for digoxin (converted)
Experimental: as §4

[14] = target: monoclonal anti-digoxin antibody Dig 26-40 (IgG2a); experiment: as above; assay type: binding, mouse (A/J); conditions: 60 min, read-out: Affinity Constant K0 for digoxin (converted)
Experimental: as §4

[15] = target: Fab fragment of monoclonal anti-digoxin antibody Dig 26-10; experiment: as above; conditions: read-out: Affinity Constant K0 for digoxin, Fab of Dig 26-10, 60 min
[16] = test system: Sheep Anti-Dig Serum (heterogeneous anti-digoxin antiserum); experiment: Specificity determination, inhibition of [3H]digoxin binding in dextran charcoal RIA; conditions: inhibition of antibody binding to [3H]digoxin
Experimental: as §1, §2, §3

[17] = test system: heterogeneous anti-digoxin antibody, Pooled mouse antisera; experiment: Affinity determination, [3H]digoxin dextran-coated charcoal RIA; assay type: binding, mouse (A/J); conditions: antibody source: serum; 60 min; read-out: Affinity Constant K0 for digoxin (converted)
Experimental: (§5) A pool of mouse antidigoxin antibody was prepared from immune sera as follows. A/J mice immunized with Dig-HSA as described above, were bled from the tail on the 3rd or 4th week following intraperitoneal injection of antigen. Their sera were pooled and the antidigoxin antibodies were purified from the sera by affinity chromatography as described below. This antibody preparation was used as a standard antidigoxin reagent in the PVC-plate RIA (described below).

[18] = target: heterogeneous anti-digoxin antibody, Pooled mouse antibody; experiment: as above; assay type: binding, mouse (A/J); conditions: antibody source: serum; 60 min; read-out: Affinity Constant K0 for digoxin (converted)
Experimental: as §5

## C[C@H]1O[C@@H](O[C@H]2[C@@H](O)C[C@H](O[C@H]3[C@@H](O)C[C@H](O[C@H]4CC[C@@]5(C)[C@H](CC[C@@H]6[C@@H]5C[C@@H](O)[C@]5(C)[C@@H](C7=CC(=O)OC7)CC[C@]65O)C4)O[C@@H]3C)O[C@@H]2C)C[C@H](O)[C@@H]1O [Digoxin]
[1]
  Kd: ~1 nM
[2]
  Kd: 0.0833 nM
[3]
  amount of inhibitor required to give 50% inhibition relative to the amount of digoxin which gave 50% inhibition: 1.0
[4]
  amount of inhibitor required to give 50% inhibition relative to the amount of digoxin which gave 50% inhibition: 1.0
[5]
  amount of inhibitor required to give 50% inhibition relative to the amount of digoxin which gave 50% inhibition: 1.0
[6]
  amount of inhibitor required to give 50% inhibition relative to the amount of digoxin which gave 50% inhibition: 1.0
[7]
  amount of inhibitor required to give 50% inhibition relative to the amount of digoxin which gave 50% inhibition: 1.0
[8]
  amount of inhibitor required to give 50% inhibition relative to the amount of digoxin which gave 50% inhibition: 1.0
[9]
  Ko for digoxin: 3.5 to 5.2 ×10^8 M^-1
  apparent affinity Ko for digoxin: < 10^8 M^-1
[9]; antibody purified from ascites
  Kd: 1.92 nM
[9]; antibody source: culture media
  Kd: 3.85 nM
[10]; antibody purified from ascites
  Kd: 0.172 nM
[10]; antibody source: culture media
  Kd: 0.256 nM
[11]
  Ko for digoxin: 1.3-3.4×10^9 M^-1
[11]; antibody purified from ascites
  Kd: 0.769 nM
[11]; antibody source: culture media
  Kd: 0.526 nM
[12]; antibody purified from ascites
  Kd: 0.213 nM
[12]; antibody source: culture media
  Kd: 0.118 nM
[12]; intact antibody
  Ko for digoxin, average value for the intact antibody: < 5×10^9
[13]; antibody purified from ascites
  Kd: 0.294 nM
[13]; antibody source: culture media
  Kd: 0.714 nM
[14]; antibody purified from ascites
  Kd: 0.385 nM
[14]; antibody source: culture media
  Kd: 0.227 nM
[15]
  Kd: 0.833 nM and 1 nM
[16]
  amount of inhibitor required to give 50% inhibition relative to the amount of digoxin which gave 50% inhibition: 1.0
[17]
  Kd: 0.323 nM
[18]
  Kd: 0.286 nM
